The subject of one series is CYP1A2. Nature of the series: in vitro. The conditions noted are these: human; for Mean Fold Induction: 48 h. As for the experimental part:
The incubation solution was aspirated and replaced with incubation solution containing the same concentrations of salidroside, vehicle, or positive inducers for an additional 24 h. The total treatment period was 48 h. After the treatment period of 48 h, the incubation solution was aspirated. Hepatocytes were washed twice with pre-warmed HBSS containing 10 mM HEPES (HBSS I) and then the remaining solution was aspirated. Hepatocytes were washed once with pre-warmed HBSS I and incubated with 140 μL of RLT (lysis buffer from RNeasy 96 Kit) supplemented with 1% β-mercaptoethanol. Plates were then stored at −70 °C in a freezer until RNA analysis. Before RNA extraction, the frozen plate was thawed, and cell lysates were transferred to 96-well plates. RNA isolation was performed using a QIAcube RNA extraction system. Reverse transcription was performed to obtain cDNA. Quantification of the selective genes by real-time quantitative polymerase chain reaction (qPCR) was performed with TaqMan universal PCR Master Mix on the Bio-rad CFX384 TouchTM Real-Time PCR System. The relative change in the mRNA level of the selected target genes induced by each test compound was expressed in relation to the vehicle control sample, and fold changes in gene expression were determined by the ΔΔCt method.

The next series has as its target T1, recombinant human MAO-B (Homo sapiens, UniProt P27338).
T1 construct: purchased Corning
T1 sequence (P27338 1-520): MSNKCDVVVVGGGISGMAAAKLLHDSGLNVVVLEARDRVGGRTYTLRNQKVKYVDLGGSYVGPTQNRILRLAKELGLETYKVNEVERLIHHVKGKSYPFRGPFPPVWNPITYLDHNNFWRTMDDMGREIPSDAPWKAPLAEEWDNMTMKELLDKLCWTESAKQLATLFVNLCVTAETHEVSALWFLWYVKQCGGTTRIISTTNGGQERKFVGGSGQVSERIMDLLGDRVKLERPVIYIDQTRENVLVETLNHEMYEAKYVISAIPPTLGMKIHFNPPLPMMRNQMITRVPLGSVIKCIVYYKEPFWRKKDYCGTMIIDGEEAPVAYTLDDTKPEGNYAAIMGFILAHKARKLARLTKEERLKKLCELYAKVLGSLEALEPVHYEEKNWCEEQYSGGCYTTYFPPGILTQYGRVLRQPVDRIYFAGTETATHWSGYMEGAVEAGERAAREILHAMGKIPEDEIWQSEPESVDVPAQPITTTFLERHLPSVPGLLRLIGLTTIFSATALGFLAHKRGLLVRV
Nature of the series: MAO inhibition, kynuramine oxidation to 4-hydroxyquinoline. The series is classed as biochemical. As for the experimental part:
A total of 99 µL of substrate working solution was added into 1.1 mL incubation tubes and then 1 µL of the test compound/control working solution or DMSO (vehicle control) was added, mixed well, and pre-incubated at 37 °C for 5 min. MAO-A (0.005 mg/mL) and MAO-B (0.02 mg/mL) were pre-incubated in the working solution at 37 °C for 5 min. A total of 100 µL of pre-incubated MAO-A or MAO-B working solution was added to incubation tubes to start the reaction, mixed well, and incubated at 37 °C for 15 min. […] All samples were centrifuged at 4000 rpm at 4 °C for 15 min, then 100 µL supernatant with 100 µL of water was transferred for LC-MS/MS analysis.
Enzyme activity (%) = PAR with compound/PAR vehicle × 100.
The oxidation of kynuramine to 4-hydroxyquinoline generated was the in vitro marker reaction of MAO-A and MAO-B enzymes.

The nature of series [1]: Estimation of maximum human plasma concentration. As to the method: An estimation of the maximum plasma concentration of salidroside in humans was made from the pharmacokinetics in rats after oral dosing and the recommended human daily dose of salidroside of 60 mg (two 30 mg capsules). Male Sprague–Dawley rats were dosed either with IV or orally at 12 mg/kg (N = 6/group). Salidroside was moderately cleared (21 mL/min/kg) and well absorbed orally.

The target of series [2] is T2, CYP2B6 (Homo sapiens, UniProt P20813).
T2 sequence (P20813 1-491): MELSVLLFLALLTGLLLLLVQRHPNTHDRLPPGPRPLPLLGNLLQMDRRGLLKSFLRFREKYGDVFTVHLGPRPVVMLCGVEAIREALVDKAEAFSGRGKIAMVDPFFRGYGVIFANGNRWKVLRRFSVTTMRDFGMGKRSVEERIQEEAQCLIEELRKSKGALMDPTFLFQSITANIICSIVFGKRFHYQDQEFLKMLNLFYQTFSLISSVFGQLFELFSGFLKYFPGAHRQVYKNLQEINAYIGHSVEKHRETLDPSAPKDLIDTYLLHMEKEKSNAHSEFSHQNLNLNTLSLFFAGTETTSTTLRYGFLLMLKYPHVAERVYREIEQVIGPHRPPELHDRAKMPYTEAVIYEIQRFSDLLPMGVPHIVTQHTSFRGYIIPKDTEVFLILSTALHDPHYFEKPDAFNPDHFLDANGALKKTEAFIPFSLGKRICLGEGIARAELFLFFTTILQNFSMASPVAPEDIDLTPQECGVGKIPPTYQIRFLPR
The following applies: microsomes.
Procedure: (§1) Incubation without 30 min pre-incubation, 178.5 µL of liver microsomes working was pre-incubated in a 37 °C water bath for 30 min. After the pre-incubation, 1.5 μL of test compound or control compound working solution, 60 μL of substrate working solution, and 60 μL of NADPH working solution were added; then, the reaction mixture was mixed by pipetting up and down and then incubated at 37 °C for 10 min. Incubation with 30 min pre-incubation. Next, 1.5 μL of test compound or control compound working solutions and 60 μL of NADPH working solution were added into 178.5 μL of liver microsome working solution, then the reaction mixture was mixed by pipetting up and down and then pre-incubated at 37 °C for 30 min. […]
(§2) For competitive and time-dependent CYP inhibition, the peak area ratios (PAR) of analyte/internal standard were used to semi-quantitatively determine the concentration of acetaminophen (CYP1A2 activity), 4’-hydroxydiclofenac (CYP2C9), 4’-hydroxymephenytoin (CYP2C19), dextrorphan (CYP2D6), 1’-hydroxymidazolam (CYP3A4), 6β-hydroxytestosterone (CYP3A4), hydroxybupropion (CYP2B6), and N-desethylamodiaquine (CYP2C8), with terfenadine as the internal standard by LC-MS/MS method. The HPLC-MS system utilized an Acquity UPLC system and Sciex API 4000 mass spectrometer in ESI positive mode, with quantitation employing MRM. […]

The target of another series is T3, CYP2C8 (Homo sapiens, UniProt P10632).
T3 sequence (P10632 1-490): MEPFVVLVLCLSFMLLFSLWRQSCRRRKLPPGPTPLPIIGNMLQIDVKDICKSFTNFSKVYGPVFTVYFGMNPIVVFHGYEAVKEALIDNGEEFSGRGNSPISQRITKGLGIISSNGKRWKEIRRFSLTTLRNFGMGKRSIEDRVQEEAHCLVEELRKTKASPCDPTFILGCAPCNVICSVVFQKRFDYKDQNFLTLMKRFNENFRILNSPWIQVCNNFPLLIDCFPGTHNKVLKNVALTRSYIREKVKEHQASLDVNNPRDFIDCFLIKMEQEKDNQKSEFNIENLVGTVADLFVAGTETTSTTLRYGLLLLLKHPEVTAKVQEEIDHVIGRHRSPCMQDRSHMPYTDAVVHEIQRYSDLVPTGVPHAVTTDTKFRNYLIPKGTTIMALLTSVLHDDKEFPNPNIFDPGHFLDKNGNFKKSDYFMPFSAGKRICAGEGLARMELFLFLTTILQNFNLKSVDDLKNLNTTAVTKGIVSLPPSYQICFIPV
The conditions noted are these: microsomes.

The nature of the next series: in vitro. The conditions noted are these: human, plasma, pH 7.4.
Series [3] deals with T2, CYP2B6. Nature of the series: biochemical.
Procedure: as §1, §2

Structures are written as SMILES.

For orientation: fold induction means the signal under treatment as a multiple of the control signal. Usually inhibition stands for the share of the control response that was lost under treatment. What is called IC50 is the concentration at which inhibition is half-maximal. One may read the fraction unbound as free concentration divided by total concentration. A lower fraction unbound goes with extensive binding.

Procedure for CYP2C8: as §1, §2

On to `OC[C@H]1O[C@@H](OCCc2ccc(O)cc2)[C@H](O)[C@@H](O)[C@@H]1O` [Salidroside], for which the “Mean Fold Induction” value is on record as 1.3 fold in the series with CYP1A2 (1 µM), 1.0 fold in the series with CYP1A2 (3 µM), 1.1 fold with CYP1A2 (10 µM) and 1.2 fold with CYP1A2 (30 µM). In the series with CYP1A2 (Mean Fold Induction), the fold induction at 48 h, 1 µM amounted to 0.9. Further, the fold induction at 48 h, 3 µM in the series with CYP1A2 (Mean Fold Induction) was 0.9. Further, the fold induction at 48 h, 10 µM in the series on CYP1A2 (Mean Fold Induction) was determined as 0.9. Besides, the fold induction at 48 h, 30 µM with CYP1A2 (Mean Fold Induction) is 0.8. In addition, the inhibition at 50 µM on recombinant human MAO-B (at 50 µM, read-out: maximum % inhibition of MAO-B) came to 22.5%. The 50% inhibitory concentration (IC50) at recombinant human MAO-B (substrate kynuramine (20 µM), mean of N = 2) was greater than 50 µM; against CYP2B6 [3] it was greater than 50 µM. For the same compound, the Cmax in series [1] (60 mg PO daily (~1 mg/kg), scaled from rat, read-out: predicted human total Cmax (predicted plasma concentration)) is less than 2000 nM. Moreover, the “predicted human unbound Cmax” value in series [1] (60 mg daily, Cmax x fu,plasma) is listed as ~ 1.18 μM. Also, the “IC50 Shift” value on CYP2B6 [2] and at CYP2C8 was “no shift” throughout. The compound further registered a fraction unbound at 5 h, 5 µM in “in vitro” of 0.985.
